How the values were obtained:
[1] = molecular target: T1, Non-receptor tyrosine-protein kinase TYK2 (Homo sapiens, UniProt P29597); test: Inhibition of fluorescein-labeled kinase tracer binding to His-TVMV-fused TYK2 JH2 domain (575 to 869 residues) (unknown origin) measured after 90 mins by HTRF assay
[2] = molecular target: T1, Non-receptor tyrosine-protein kinase TYK2; test: Inhibition of TYK2 JH2 (unknown origin) by morrison titration assay; settings: read-out: Ki(app)
[3] = Drug metabolism in C57BL/6 mouse plasma assessed as amide formation at 0.3 to 10 mg/kg, po; type: ADME, organism-based; settings: in vivo
[4] = Drug concentration in IL12/IL18-induced C57BL/6 mouse serum at 10 mg/kg, po pretreated for 1 hr followed by IL12 stimulation and subsequent IL18 addition and measured after 5 hrs; type: ADME, organism-based; settings: read-out: Drug uptake
[5] = Half life in mouse liver microsomes; type: ADME, Microsome
[6] = Terminal drug concentration in CD40-induced B6 CB17 mouse serum at 25 mg/kg, po BID administered as nanosuspension measured 24 hrs post-last dose; type: ADME, organism-based; settings: read-out: Drug uptake
[7] = Terminal drug concentration in CD40-induced B6 CB17 mouse serum at 250 mg/kg, po BID administered as nanosuspension measured 24 hrs post-last dose; type: ADME, organism-based; settings: read-out: Drug uptake
[8] = molecular target: T1, Non-receptor tyrosine-protein kinase TYK2; test: Inhibition of TYK2 JH2 domain in human whole blood assessed as inhibition of IFNalpha-induced STAT5 phosphorylation preincubated for 1 hr followed by IFNalpha stimulation and measured after 15 mins by fluorescence assay; type: tissue-based
[9] = Partition coefficient, log P of compound by HPLC analysis; type: physicochemical; settings: octanol/water
Mus musculus [10] = test: Inhibition of IL12/IL18-induced IFNgamma production in C57BL/6 mouse at 10 mg/kg, po pretreated for 1 hr followed by IL12 stimulation and subsequent IL18 addition and measured after 3 hrs relative to control; type: functional; settings: C57BL/6, po
[11] = Drug concentration in IL12/IL18-induced C57BL/6 mouse serum at 0.3 mg/kg, po pretreated for 1 hr followed by IL12 stimulation and subsequent IL18 addition and measured after 5 hrs; type: ADME, organism-based; settings: read-out: Drug uptake
[12] = Ratio of drug concentration in IL12/IL18-induced C57BL/6 mouse serum at 10 mg/kg, po to IC50 for TYK2 JH2 domain in mouse whole blood; type: ADME, organism-based; settings: in vivo
[13] = Half life in human liver microsomes; type: ADME, Microsome
[14] = AUClast in mouse at 10 mg/kg, po after 7 hrs; type: ADME, organism-based; design: time < 7 hr, dose 10 mg/kg, route oral; settings: in vivo
[15] = Cmax in mouse at 10 mg/kg, po after 7 hrs; type: ADME, organism-based; design: dose 10 mg/kg, route oral; settings: in vivo
[16] = Half life in dog liver microsomes; type: ADME, Canis lupus familiaris, Microsome
[17] = Ratio of drug concentration in IL12/IL18-induced C57BL/6 mouse serum at 3 mg/kg, po to IC50 for TYK2 JH2 domain in mouse whole blood; type: ADME, organism-based; settings: in vivo
[18] = Terminal drug concentration in CD40-induced B6 CB17 mouse serum at 80 mg/kg, po BID administered as nanosuspension measured 24 hrs post-last dose; type: ADME, organism-based; settings: read-out: Drug uptake
[19] = Drug concentration in IL12/IL18-induced C57BL/6 mouse serum at 1 mg/kg, po pretreated for 1 hr followed by IL12 stimulation and subsequent IL18 addition and measured after 5 hrs; type: ADME, organism-based; settings: read-out: Drug uptake
[20] = molecular target: T1, Non-receptor tyrosine-protein kinase TYK2; test: Inhibition of TYK2 JH1 domain (unknown origin)
[21] = molecular target: Non-receptor tyrosine-protein kinase TYK2 (Mus musculus, UniProt Q9R117); test: Inhibition of TYK2 JH2 domain in mouse whole blood assessed as inhibition of IFNalpha-induced STAT1 phosphorylation preincubated for 1 hr followed by IFNalpha stimulation and measured after 15 mins by fluorescence assay; type: tissue-based
Non-receptor tyrosine-protein kinase TYK2 (Mus musculus, UniProt Q9R117), sequence (Q9R117 whole entry, the tested form may be a part): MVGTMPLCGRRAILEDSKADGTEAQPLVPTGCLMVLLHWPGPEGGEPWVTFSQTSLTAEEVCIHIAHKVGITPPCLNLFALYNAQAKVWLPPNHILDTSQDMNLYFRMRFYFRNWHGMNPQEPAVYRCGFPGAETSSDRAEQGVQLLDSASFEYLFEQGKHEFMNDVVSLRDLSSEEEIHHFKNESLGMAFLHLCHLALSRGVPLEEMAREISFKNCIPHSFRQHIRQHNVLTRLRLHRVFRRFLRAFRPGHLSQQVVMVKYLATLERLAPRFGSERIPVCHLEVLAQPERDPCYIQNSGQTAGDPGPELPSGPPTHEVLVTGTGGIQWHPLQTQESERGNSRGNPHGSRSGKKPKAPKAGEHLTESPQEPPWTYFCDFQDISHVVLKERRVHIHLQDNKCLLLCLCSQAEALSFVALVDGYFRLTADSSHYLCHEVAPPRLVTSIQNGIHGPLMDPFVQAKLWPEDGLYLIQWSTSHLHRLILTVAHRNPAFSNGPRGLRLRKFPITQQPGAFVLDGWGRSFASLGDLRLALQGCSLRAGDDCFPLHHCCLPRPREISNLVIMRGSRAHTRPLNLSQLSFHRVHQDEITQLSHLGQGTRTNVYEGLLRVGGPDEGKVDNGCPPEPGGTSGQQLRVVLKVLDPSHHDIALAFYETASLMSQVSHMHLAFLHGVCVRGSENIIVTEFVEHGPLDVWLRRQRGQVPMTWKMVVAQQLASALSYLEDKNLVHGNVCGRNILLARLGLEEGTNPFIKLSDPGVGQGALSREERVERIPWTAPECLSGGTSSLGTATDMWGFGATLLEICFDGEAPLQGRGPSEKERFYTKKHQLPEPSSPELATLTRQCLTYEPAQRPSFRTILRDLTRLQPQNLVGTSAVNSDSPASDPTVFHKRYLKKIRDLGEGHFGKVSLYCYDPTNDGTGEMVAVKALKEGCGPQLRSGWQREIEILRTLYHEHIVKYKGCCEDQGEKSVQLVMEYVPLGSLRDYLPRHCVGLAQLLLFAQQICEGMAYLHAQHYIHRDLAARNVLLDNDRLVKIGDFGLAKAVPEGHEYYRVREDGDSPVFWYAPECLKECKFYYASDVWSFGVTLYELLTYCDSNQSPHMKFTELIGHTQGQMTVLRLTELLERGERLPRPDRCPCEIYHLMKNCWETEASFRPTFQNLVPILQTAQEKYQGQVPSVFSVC

[22] = Permeability across apical to basolateral side in human Caco2 cells; type: ADME, cell-based; settings: Caco-2, read-out: permeability
[23] = Drug concentration in IL12/IL18-induced C57BL/6 mouse serum at 3 mg/kg, po pretreated for 1 hr followed by IL12 stimulation and subsequent IL18 addition and measured after 5 hrs; type: ADME, organism-based; settings: read-out: Drug uptake
Mus musculus [24] = test: Inhibition of IL12/IL18-induced IFNgamma production in C57BL/6 mouse at 1 mg/kg, po pretreated for 1 hr followed by IL12 stimulation and subsequent IL18 addition and measured after 3 hrs relative to control; type: functional; settings: C57BL/6, po
[25] = molecular target: Tyrosine-protein kinase JAK1 (Homo sapiens, UniProt P23458); test: Inhibition of JAK1 JH1 domain (unknown origin)
Tyrosine-protein kinase JAK1, sequence (P23458 whole entry, the tested form may be a part): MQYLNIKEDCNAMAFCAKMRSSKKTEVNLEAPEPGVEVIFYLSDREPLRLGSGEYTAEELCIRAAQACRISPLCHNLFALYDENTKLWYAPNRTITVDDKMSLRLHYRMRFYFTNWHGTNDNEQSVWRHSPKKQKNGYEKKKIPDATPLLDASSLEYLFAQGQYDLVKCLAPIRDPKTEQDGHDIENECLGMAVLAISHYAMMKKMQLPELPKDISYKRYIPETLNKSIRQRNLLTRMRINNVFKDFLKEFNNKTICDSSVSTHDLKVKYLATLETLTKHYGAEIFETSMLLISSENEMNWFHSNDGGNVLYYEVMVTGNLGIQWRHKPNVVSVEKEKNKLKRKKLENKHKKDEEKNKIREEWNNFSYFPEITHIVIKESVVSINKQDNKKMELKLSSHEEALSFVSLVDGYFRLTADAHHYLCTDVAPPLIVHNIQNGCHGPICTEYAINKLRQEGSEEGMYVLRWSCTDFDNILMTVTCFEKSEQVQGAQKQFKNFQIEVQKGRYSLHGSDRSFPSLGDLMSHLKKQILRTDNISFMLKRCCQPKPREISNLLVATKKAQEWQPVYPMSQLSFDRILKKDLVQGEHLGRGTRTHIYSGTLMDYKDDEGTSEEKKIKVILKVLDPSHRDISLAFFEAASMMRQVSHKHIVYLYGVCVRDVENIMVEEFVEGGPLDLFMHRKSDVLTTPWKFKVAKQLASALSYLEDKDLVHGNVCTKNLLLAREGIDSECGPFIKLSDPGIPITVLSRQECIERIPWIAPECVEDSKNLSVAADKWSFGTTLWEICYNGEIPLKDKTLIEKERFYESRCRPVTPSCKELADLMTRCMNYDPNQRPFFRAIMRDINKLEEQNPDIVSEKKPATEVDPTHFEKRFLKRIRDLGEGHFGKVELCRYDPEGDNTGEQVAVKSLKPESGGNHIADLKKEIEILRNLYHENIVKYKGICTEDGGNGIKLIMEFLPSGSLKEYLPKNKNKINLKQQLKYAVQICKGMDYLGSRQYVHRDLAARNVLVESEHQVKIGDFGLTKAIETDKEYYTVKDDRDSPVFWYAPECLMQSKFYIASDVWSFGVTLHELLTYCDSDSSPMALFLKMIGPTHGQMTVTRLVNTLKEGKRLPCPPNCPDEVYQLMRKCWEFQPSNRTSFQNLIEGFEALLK

[26] = molecular target: Tyrosine-protein kinase JAK2 (Homo sapiens, UniProt O60674); test: Inhibition of JAK2 JH1 domain (unknown origin)
Tyrosine-protein kinase JAK2, sequence (O60674 whole entry, the tested form may be a part): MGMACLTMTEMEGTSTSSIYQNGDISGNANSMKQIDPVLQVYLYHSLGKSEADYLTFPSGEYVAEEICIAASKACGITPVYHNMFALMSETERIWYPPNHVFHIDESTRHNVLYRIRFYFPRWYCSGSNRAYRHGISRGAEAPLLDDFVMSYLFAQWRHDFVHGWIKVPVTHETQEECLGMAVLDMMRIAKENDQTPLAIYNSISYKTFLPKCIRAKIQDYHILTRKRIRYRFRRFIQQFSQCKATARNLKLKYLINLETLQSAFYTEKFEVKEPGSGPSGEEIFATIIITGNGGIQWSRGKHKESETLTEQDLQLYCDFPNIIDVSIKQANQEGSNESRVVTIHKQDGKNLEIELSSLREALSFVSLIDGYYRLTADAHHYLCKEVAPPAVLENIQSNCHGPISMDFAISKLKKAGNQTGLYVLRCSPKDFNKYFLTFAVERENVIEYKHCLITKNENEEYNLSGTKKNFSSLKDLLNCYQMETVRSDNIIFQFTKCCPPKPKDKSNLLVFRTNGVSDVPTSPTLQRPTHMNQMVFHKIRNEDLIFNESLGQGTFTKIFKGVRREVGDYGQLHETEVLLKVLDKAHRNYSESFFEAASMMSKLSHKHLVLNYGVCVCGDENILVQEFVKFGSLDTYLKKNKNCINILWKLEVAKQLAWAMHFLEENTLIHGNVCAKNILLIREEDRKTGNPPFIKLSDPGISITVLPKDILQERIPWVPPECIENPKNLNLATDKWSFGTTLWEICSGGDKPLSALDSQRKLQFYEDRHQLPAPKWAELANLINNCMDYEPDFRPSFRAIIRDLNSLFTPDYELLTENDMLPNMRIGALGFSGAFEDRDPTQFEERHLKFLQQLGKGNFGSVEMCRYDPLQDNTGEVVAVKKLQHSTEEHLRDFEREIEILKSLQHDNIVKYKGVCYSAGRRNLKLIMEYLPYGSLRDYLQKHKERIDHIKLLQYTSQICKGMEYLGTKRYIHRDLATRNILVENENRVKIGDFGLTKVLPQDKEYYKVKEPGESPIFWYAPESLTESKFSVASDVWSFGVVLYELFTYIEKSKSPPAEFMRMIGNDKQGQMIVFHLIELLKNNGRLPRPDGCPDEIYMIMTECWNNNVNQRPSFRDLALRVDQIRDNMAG

[27] = Half life in rat liver microsomes; type: ADME, Microsome
Mus musculus [28] = test: Inhibition of IL12/IL18-induced IFNgamma production in C57BL/6 mouse at 3 mg/kg, po pretreated for 1 hr followed by IL12 stimulation and subsequent IL18 addition and measured after 3 hrs relative to control; type: functional; settings: C57BL/6, po
[29] = Half life in cynomolgus monkey liver microsomes; type: ADME, Macaca fascicularis, Microsome
[30] = Efflux ratio of permeability in human Caco2; type: ADME, cell-based; settings: Caco-2
[31] = Ratio of drug concentration in IL12/IL18-induced C57BL/6 mouse serum at 1 mg/kg, po to IC50 for TYK2 JH2 domain in mouse whole blood; type: ADME, organism-based; settings: in vivo
[32] = Ratio of drug concentration in IL12/IL18-induced C57BL/6 mouse serum at 0.3 mg/kg, po to IC50 for TYK2 JH2 domain in mouse whole blood; type: ADME, organism-based; settings: in vivo
JAK1/TYK2 = JAK1/TYK2 (Homo sapiens, UniProt P23458+P29597); test: Inhibition of TYK2/JAK1 in IFNalpha-stimulated human Kit225 cells by steady-glo luciferase assay
JAK1/TYK2, sequence (P23458 whole entry): as the sequence (P23458 whole entry, the tested form may be a part) above
JAK1/TYK2, sequence (P29597 whole entry): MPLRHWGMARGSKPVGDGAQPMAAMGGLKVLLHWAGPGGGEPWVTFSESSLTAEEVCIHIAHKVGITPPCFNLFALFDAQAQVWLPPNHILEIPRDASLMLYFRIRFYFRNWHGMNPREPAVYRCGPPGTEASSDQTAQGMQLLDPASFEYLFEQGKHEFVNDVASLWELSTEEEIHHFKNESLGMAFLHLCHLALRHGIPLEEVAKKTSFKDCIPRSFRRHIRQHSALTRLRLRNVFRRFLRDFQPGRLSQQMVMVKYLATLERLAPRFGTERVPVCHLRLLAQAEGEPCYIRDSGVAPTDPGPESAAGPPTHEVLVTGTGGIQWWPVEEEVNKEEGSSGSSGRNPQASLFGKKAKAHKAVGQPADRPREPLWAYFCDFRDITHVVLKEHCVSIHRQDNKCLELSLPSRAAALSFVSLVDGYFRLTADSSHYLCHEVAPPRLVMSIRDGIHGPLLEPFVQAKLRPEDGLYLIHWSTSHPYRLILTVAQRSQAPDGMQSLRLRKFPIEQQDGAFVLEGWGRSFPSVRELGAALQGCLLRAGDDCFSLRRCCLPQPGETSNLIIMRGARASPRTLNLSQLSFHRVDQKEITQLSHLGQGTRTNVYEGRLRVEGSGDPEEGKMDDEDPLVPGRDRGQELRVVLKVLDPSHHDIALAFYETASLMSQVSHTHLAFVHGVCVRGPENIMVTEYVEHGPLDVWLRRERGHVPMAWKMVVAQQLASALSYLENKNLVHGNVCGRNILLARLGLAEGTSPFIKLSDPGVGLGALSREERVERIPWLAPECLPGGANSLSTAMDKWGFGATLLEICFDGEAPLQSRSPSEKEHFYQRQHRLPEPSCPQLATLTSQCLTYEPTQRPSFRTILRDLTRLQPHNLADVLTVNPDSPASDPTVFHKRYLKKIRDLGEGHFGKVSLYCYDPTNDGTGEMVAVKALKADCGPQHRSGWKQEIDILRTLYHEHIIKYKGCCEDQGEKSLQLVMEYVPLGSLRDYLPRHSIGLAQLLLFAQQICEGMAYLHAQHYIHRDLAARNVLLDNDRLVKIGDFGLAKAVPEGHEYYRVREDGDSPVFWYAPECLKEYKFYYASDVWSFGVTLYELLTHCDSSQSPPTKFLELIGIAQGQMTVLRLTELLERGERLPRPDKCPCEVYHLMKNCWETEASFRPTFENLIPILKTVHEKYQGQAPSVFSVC

Mus musculus [33] = test: Inhibition of IL12/IL18-induced IFNgamma production in C57BL/6 mouse at 0.3 mg/kg, po pretreated for 1 hr followed by IL12 stimulation and subsequent IL18 addition and measured after 3 hrs relative to control; type: functional; settings: C57BL/6, po

T1 sequence (P29597 whole entry, the tested form may be a part): as the sequence (P29597 whole entry) above

IC50 [1]: 0.53 nM
Ki [2]: 0.07 nM
Drug metabolism [3]: Metabolite_Notdetected
concentration at 5 h [4]: 503 nM
half-life [5]: 46 min
concentration at 24 h [6]: 12 nM
concentration at 24 h [7]: 77 nM
IC50 [8]: 130 nM
logP [9]: 2.45
concentration at 5 h [11]: 24 nM
Ratio [12]: 4
half-life [13]: 48 min
AUC(0-t) at 7 h [14]: 24.3 µM·h
Cmax [15]: 10500 nM
half-life [16]: 19 min
Ratio [17]: 1
concentration at 24 h [18]: 67 nM
concentration at 5 h [19]: 69 nM
IC50 [20]: > 50000 nM
IC50 [21]: 120 nM
Papp A→B [22]: 28 ×10⁻⁶ cm/s
concentration at 5 h [23]: 133 nM
IC50 [25]: > 40000 nM
IC50 [26]: > 50000 nM
half-life [27]: 49 min
half-life [29]: 4 min
efflux ratio [30]: 2.1
Ratio [31]: 0.5
Ratio [32]: 0.2
IC50 (JAK1/TYK2): 0.53 nM
SMILES: [2H]C([2H])([2H])NC(=O)c1nnc(Nc2ccccn2)cc1Nc1ccccc1S(C)(=O)=O
inhibition in vivo at 10 mg/kg (Mus musculus [10]): 91%
inhibition in vivo at 1 mg/kg (Mus musculus [24]): 56%
inhibition in vivo at 3 mg/kg (Mus musculus [28]): 77%
inhibition in vivo at 0.3 mg/kg (Mus musculus [33]): 13%

From ChEMBL document CHEMBL4414548 (J Med Chem, 2019)
